Laboratory results as given in PubChem BioAssay AID2305 (GlaxoSmithKline (GSK), 2010).
pIC50: −log10 of the molar value.

What follows are molecules tested on P. falciparum 3D7 growth, pLDH absorbance (assay: blood-stage malaria parasite growth potency – strain 3D7, dose response (AID 2305)).

Going from O=C(Nc1ccccc1)N(Cc1ccccc1-c1cccc(CNCCc2ccccc2)c1)C1CCN(Cc2ccccc2)CC1 to O=C(NCCCCN1CCC(c2ccc(-c3ccco3)cc2)CC1)c1ccc(NC(=O)c2ccc(Cl)cc2)cc1, the pIC50 falls from 6.74 to 6.27 (0.47 log units).

First: COc1ccc(NC(=O)/C=C/c2ccccc2Cl)cc1OCCN1CCC(N2CCN(C)CC2)CC1
Second: COc1ccc(Br)cc1/C=C/C(=O)Nc1ccc2c(c1)CCCN(C)C2
The pIC50 of the first is 0.50 log units higher: 6.31 for the first, 5.81 for the second.

Cc1cc(NN=Cc2cccc([N+](=O)[O-])c2)c2cc(F)ccc2n1 and Cc1cc(N)nc2ccc(-c3cccc(CN)c3)cc12 are within 0.2 log units of each other in pIC50: 6.23 for the first, 6.15 for the second.

Going from CON(C)C(=O)[C@@H](CCCCNC(=O)OCc1ccccc1)NC(=O)OC(C)(C)C to CC(C)[C@H](NCC(=O)c1ccccc1)C(=O)O, the pIC50 falls from 6.72 to 6.11 (0.61 log units). The first is the more potent here.

CN(C)CCNCc1nc(-c2ccc3c(Nc4ccc(Cl)cc4F)ccnc3c2)cs1 and CN(C)CCNc1ncnc2c1[nH]c1ccc(Cl)cc12 are within 0.2 log units of each other in pIC50: 6.09 for the first, 6.22 for the second.

Going from CCOc1ccc(-c2nonc2NC(=O)c2ccccc2OC)cc1OCC to CCOP(=O)(OCC)c1ccc(OC)c(-c2ccc[nH]2)c1, the pIC50 falls from 6.62 to 5.92 (0.70 log units). The first is the more potent here.

c1cc(CNCc2ccc3c(c2)OCO3)cc(-c2cccc(CNc3ccc4ncccc4c3)c2)c1 and CS(=O)(=O)CCNCc1ccc(-c2ccc3ncnc(Nc4ccc(OCc5ccccc5)c(Cl)c4)c3c2)o1 are within 0.2 log units of each other in pIC50: 6.12 for the first, 6.25 for the second.

Compared with C=C[C@H]1CN(CCCCCCC)CC[C@H]1CC(=O)Nc1cnnc2ccc(OC)cc12, COc1ccc2nccc([C@@H](O)CN3CCC(NCc4cc5ccccn5n4)CC3)c2c1 is 0.48 log units lower in pIC50: 6.28 for the first, 5.80 for the second.

Compared with O=C(Nc1ccc(-c2ccccc2)cc1)Nc1ccc2c(c1)CCNCC2, O=S(=O)(Nc1cc2c(cc1O)CCNCC2)c1ccc(-c2ccc(Cl)cc2)cc1 is 0.45 log units lower in pIC50: 6.46 for the first, 6.01 for the second.

Going from Cc1[nH]c2c(C)cccc2c1C1CCN(CCC2CCN(C(=O)/C=C/c3ccc(Cl)c(Cl)c3)CC2)CC1 to CCOc1cc(CC)ccc1C1CCN(CCN2CCC(NC(=O)c3ccc(-c4ccc(C(C)=O)cc4)cc3)CC2)CC1, the pIC50 rises from 6.19 to 6.64 (0.45 log units). The second is the more potent here.

CCOc1cc(C(=O)Nc2cccnc2)cc(Br)c1OCCC(C)C and COc1ccc(-n2ccnc2SCC(=O)Nc2cc(Cl)ccc2OC)c(OC)c1 are within 0.2 log units of each other in pIC50: 5.97 for the first, 6.14 for the second.

Cc1ccc(CNC(=O)c2ccc(CN3CCCN(Cc4ccsc4)CC3)cc2)cc1 and O=C(Nc1ccc(OC2CCN(Cc3ccsc3)CC2)c(Cl)c1)c1ccc(F)cc1 are within 0.2 log units of each other in pIC50: 6.06 for the first, 6.19 for the second.

O=c1cc(NCCCNCc2cccc(SC(F)(F)F)c2)[nH]c2ccccc12 and CC1CC(NCCCNc2cc(=O)c3ccccc3[nH]2)c2cc(Cl)c(Cl)c(Cl)c21 (stereo not given) are the same in pIC50: 6.14 for the first, 6.14 for the second.

Going from Cn1cnc(CCNC(=O)c2cccc(-c3cccc(-c4nc5ccc(C(F)(F)F)cc5[nH]4)c3)c2)c1 to Cc1ccc2nc(-c3cc(-c4cccc(CCN5CCOCC5)c4)cnc3N)[nH]c2c1, the pIC50 rises from 6.15 to 6.77 (0.62 log units). The second is the more potent here.

O=C(Nc1nc2cc(S(=O)(=O)NCCc3ccc(F)cc3)ccc2n1CCCn1ccnc1)c1ccc(Cl)cc1 and Oc1ccc(CCNc2nc(N/N=C/C=C/c3ccc(Cl)cc3)nc(N3CCNCC3)n2)cc1 are within 0.2 log units of each other in pIC50: 5.95 for the first, 6.11 for the second.

Going from Cc1ccc(S(=O)(=O)N(CCCNCc2cccc(O)c2)c2ccccc2)cc1 to Cc1cc(N[C@@H](Cc2ccccc2)C(=O)NCc2cccs2)nc(NCCOc2ccccc2)n1, the pIC50 falls from 6.11 to 5.83 (0.28 log units).

Cc1[nH]c2ccccc2c1C(=O)C(C)Sc1nnc(-c2ccccc2F)o1 (stereo not given) and O=C(NC1CCN(c2ccnc3cc(Cl)ccc23)C1)c1ccccc1F (stereo not given) are within 0.2 log units of each other in pIC50: 6.16 for the first, 6.01 for the second.

COc1ccc(C(=C(C)CC(C)C(=O)O)c2ccccc2)cc1 (stereo not given) and NC1=NC(c2ccccc2)(c2ccccc2)C(=O)N1Cc1ccccc1Br are within 0.2 log units of each other in pIC50: 6.08 for the first, 6.07 for the second.

Cc1cccc(CN2CCCC3(CCN(Cc4ccccc4O)C3)C2)c1 (stereo not given) and CCCN(c1ccc(O)c(CN2CCCCC2)c1)c1ccc([N+](=O)[O-])cn1 are the same in pIC50: 6.10 for the first, 6.10 for the second.

COc1ccc2ncc(Cl)c(CCN3CCC(NCc4ccc5c(n4)NC(=O)CS5)CC3)c2c1 and COc1ccc2nccc([C@@H](O)CN3CCC(NCc4nc5ccc(F)cc5[nH]4)CC3)c2c1 are within 0.2 log units of each other in pIC50: 6.23 for the first, 6.14 for the second.

Going from CC(C)CN1CCN(CCNc2c3ccccc3nc3ccccc23)CC1 to c1ccc2cc3c(NCCN4CCOCC4)ccnc3cc2c1, the pIC50 rises from 6.09 to 6.77 (0.68 log units).

First: COc1cc(Nc2nccn3c(-c4ccsc4)cnc23)cc(OC)c1OC
Second: COc1ccccc1CNc1ncc(-c2ccsc2)c(-c2nccs2)n1
The pIC50 of the first is 0.43 log units lower: 6.05 for the first, 6.48 for the second. The second is the more potent here.

Going from COc1ccc(-c2nc3c(N)nc(N)nc3nc2C(C)C)cc1 to Cc1cccc2[nH]c(-c3ccc(-c4ccc(NC(=O)C(C)CN(C)C)cc4)s3)nc12 (stereo not given), the pIC50 falls from 6.72 to 6.39 (0.33 log units).

CCOc1cc(C=NNc2nc3ccccc3[nH]2)ccc1OCc1ccc([N+](=O)[O-])cc1 and Cn1c(Nc2cc(C(C)(C)C)on2)nc2cc(Nc3ccnc(Nc4ccc(CS(C)(=O)=O)cc4)n3)ccc21 are within 0.2 log units of each other in pIC50: 6.00 for the first, 6.01 for the second.

O=C(NC1CCC(CN2CCC(c3c[nH]c4ccccc34)CC2)CC1)NC12CC3CC(CC(C3)C1)C2 (stereo not given) and O=C(O)c1cccnc1Sc1ccc(Cl)cc1 are within 0.2 log units of each other in pIC50: 5.97 for the first, 6.08 for the second.
